± gives the uncertainty stated by the source.
Test: xn = mol fraction of the nth substance listed

CCCCCCCCCCCCCC[P+](CCCCCC)(CCCCCC)CCCCCC.N#C[N-]C#N + O
Details | viscosity [mPa·s]
303.11 K, 101 kPa, x2 = 0.198 | 284.5 ± 14

CCCCCO + O
viscosity [mPa·s], 101 kPa
Details | 298.15 K | 308.15 K | 318.15 K
x2 = 0.0288 | 3.509 ± 0.031 | 2.654 ± 0.023 | –
x2 = 0.029 | – | – | 2.055 ± 0.018
x2 = 0.0453 | 3.487 ± 0.03 | 2.638 ± 0.023 | –
x2 = 0.066 | 3.468 ± 0.03 | 2.62 ± 0.023 | –
x2 = 0.0685 | – | – | 2.026 ± 0.018
x2 = 0.0859 | 3.451 ± 0.03 | 2.606 ± 0.023 | –
x2 = 0.0914 | – | – | 2.016 ± 0.018
x2 = 0.1012 | – | – | 2.006 ± 0.018
x2 = 0.113 | 3.437 ± 0.029 | 2.591 ± 0.022 | –
x2 = 0.1301 | 3.431 ± 0.029 | 2.585 ± 0.022 | 1.997 ± 0.017
x2 = 0.1472 | 3.429 ± 0.029 | 2.579 ± 0.022 | –
x2 = 0.149 | – | – | 1.991 ± 0.017
x2 = 0.1655 | – | 2.577 ± 0.022 | –
x2 = 0.1689 | 3.424 ± 0.029 | – | 1.985 ± 0.017
x2 = 0.1776 | 3.426 ± 0.029 | 2.576 ± 0.022 | –
x2 = 0.2023 | – | – | 1.98 ± 0.017
x2 = 0.216 | 3.428 ± 0.028 | 2.572 ± 0.022 | –
x2 = 0.2419 | 3.438 ± 0.028 | 2.575 ± 0.022 | 1.979 ± 0.017

COCC(C)O (centres undefined) + O
viscosity [mPa·s], 101.33 kPa
Details | 298.15 K | 308.15 K | 318.15 K
x1 = 0.0222 | 1.29 ± 0.037 | 1 ± 0.029 | 0.8257 ± 0.024
x1 = 0.0396 | 1.651 ± 0.045 | 1.236 ± 0.035 | 0.98 ± 0.027
x1 = 0.1131 | 3.035 ± 0.072 | 2.119 ± 0.052 | 1.579 ± 0.039
x1 = 0.1959 | 3.731 ± 0.086 | 2.615 ± 0.063 | 1.925 ± 0.047
x1 = 0.301 | 3.864 ± 0.089 | 2.73 ± 0.065 | 2.015 ± 0.048
x1 = 0.3583 | 3.811 ± 0.088 | 2.663 ± 0.064 | 1.978 ± 0.048
x1 = 0.4651 | 3.515 ± 0.081 | 2.438 ± 0.058 | 1.841 ± 0.044
x1 = 0.5264 | 3.124 ± 0.073 | 2.3 ± 0.055 | 1.744 ± 0.042
x1 = 0.7332 | 2.414 ± 0.056 | 1.823 ± 0.044 | 1.42 ± 0.034
x1 = 0.8372 | 2.094 ± 0.049 | 1.61 ± 0.039 | 1.277 ± 0.031
x1 = 0.9035 | 1.929 ± 0.045 | 1.49 ± 0.036 | 1.189 ± 0.029

C=C(C)C(=O)O + O=C1CCCCC1
viscosity [mPa·s], 101 kPa
Details | x2 = 0.1 | x2 = 0.2 | x2 = 0.3 | x2 = 0.4 | x2 = 0.5 | x2 = 0.5999 | x2 = 0.7 | x2 = 0.8 | x2 = 0.9
298.15 K | 1.369 ± 0.032 | 1.528 ± 0.035 | 1.659 ± 0.038 | 1.809 ± 0.042 | 1.901 ± 0.044 | 1.949 ± 0.045 | 1.999 ± 0.046 | 2.045 ± 0.047 | 2.037 ± 0.047
308.15 K | 1.159 ± 0.027 | 1.281 ± 0.03 | 1.389 ± 0.032 | 1.508 ± 0.035 | 1.583 ± 0.037 | 1.616 ± 0.037 | 1.651 ± 0.038 | 1.683 ± 0.039 | 1.684 ± 0.039
318.15 K | 0.999 ± 0.023 | 1.101 ± 0.026 | 1.183 ± 0.027 | 1.275 ± 0.03 | 1.33 ± 0.031 | 1.359 ± 0.032 | 1.395 ± 0.032 | 1.424 ± 0.033 | 1.422 ± 0.033

O=[N+]([O-])c1ccccc1 + O=C1CCCCC1
Details | viscosity [mPa·s]
298.15 K, 101.3 kPa, x2 = 0.1946 | 1.785 ± 0.027

CCOCCOCCO + O=C1CCCN1
298.15 K, 101 kPa
Details | viscosity [mPa·s]
x1 = 0.0021 | 14.17 ± 0.3
x1 = 0.004 | 14.1 ± 0.3
x1 = 0.0086 | 14 ± 0.29
x1 = 0.0117 | 13.9 ± 0.29
x1 = 0.0212 | 13.57 ± 0.29
x1 = 0.0348 | 13.2 ± 0.28
x1 = 0.0525 | 12.63 ± 0.27
x1 = 0.0788 | 12.03 ± 0.25
x1 = 0.108 | 11.37 ± 0.24
x1 = 0.1478 | 10.61 ± 0.23
x1 = 0.1914 | 9.859 ± 0.21
x1 = 0.2318 | 9.217 ± 0.2
x1 = 0.2798 | 8.602 ± 0.18
x1 = 0.3222 | 8.116 ± 0.17
x1 = 0.3673 | 7.637 ± 0.17
x1 = 0.4326 | 7.009 ± 0.15
x1 = 0.4635 | 6.788 ± 0.15
x1 = 0.5199 | 6.331 ± 0.14
x1 = 0.5639 | 6.038 ± 0.13
x1 = 0.6088 | 5.76 ± 0.13
x1 = 0.6756 | 5.37 ± 0.12
x1 = 0.7363 | 5.074 ± 0.11
x1 = 0.7879 | 4.842 ± 0.11
x1 = 0.8388 | 4.665 ± 0.11
x1 = 0.8795 | 4.494 ± 0.1
x1 = 0.9249 | 4.308 ± 0.098
x1 = 0.9572 | 4.175 ± 0.095
x1 = 0.977 | 4.003 ± 0.092
x2 = 0.0069 | 3.885 ± 0.089

ClC(Cl)=C(Cl)Cl + O=[N+]([O-])c1ccccc1
303.15 K, 101 kPa
Details | viscosity [mPa·s]
x1 = 0.1516 | 1.446 ± 0.034
x1 = 0.2128 | 1.376 ± 0.03
x1 = 0.2966 | 1.288 ± 0.026
x1 = 0.3642 | 1.221 ± 0.023
x1 = 0.4582 | 1.144 ± 0.02
x1 = 0.5496 | 1.074 ± 0.017
x1 = 0.6451 | 1.012 ± 0.014
x1 = 0.7624 | 0.941 ± 0.012
x1 = 0.8428 | 0.896 ± 0.01
x1 = 0.9206 | 0.856 ± 0.009

C1CCC2CCCCC2C1 (centres undefined) + OCC1CC1
viscosity [mPa·s], 101 kPa
Details | x2 = 0.0988 | x2 = 0.2017 | x2 = 0.2994 | x2 = 0.4008 | x2 = 0.5004 | x2 = 0.6011 | x2 = 0.7007 | x2 = 0.8009 | x2 = 0.8994
293.15 K | 2.377 ± 0.05 | 2.408 ± 0.051 | 2.471 ± 0.053 | 2.554 ± 0.054 | 2.676 ± 0.057 | 2.846 ± 0.061 | 3.024 ± 0.065 | 3.244 ± 0.069 | 3.581 ± 0.077
298.15 K | 2.149 ± 0.046 | 2.17 ± 0.046 | 2.217 ± 0.047 | 2.282 ± 0.049 | 2.378 ± 0.051 | 2.517 ± 0.054 | 2.662 ± 0.057 | 2.84 ± 0.061 | 3.12 ± 0.067
303.15 K | 1.952 ± 0.041 | 1.965 ± 0.042 | 2.001 ± 0.043 | 2.05 ± 0.044 | 2.126 ± 0.045 | 2.24 ± 0.048 | 2.356 ± 0.05 | 2.502 ± 0.053 | 2.736 ± 0.059
308.15 K | 1.781 ± 0.038 | 1.787 ± 0.038 | 1.814 ± 0.039 | 1.85 ± 0.039 | 1.91 ± 0.041 | 2.003 ± 0.043 | 2.097 ± 0.045 | 2.215 ± 0.047 | 2.411 ± 0.052
313.15 K | 1.63 ± 0.035 | 1.633 ± 0.035 | 1.651 ± 0.035 | 1.678 ± 0.036 | 1.724 ± 0.037 | 1.799 ± 0.038 | 1.874 ± 0.04 | 1.971 ± 0.042 | 2.135 ± 0.046
318.15 K | 1.499 ± 0.032 | 1.497 ± 0.032 | 1.509 ± 0.032 | 1.527 ± 0.033 | 1.562 ± 0.033 | 1.623 ± 0.035 | 1.683 ± 0.036 | 1.762 ± 0.038 | 1.899 ± 0.041
323.15 K | 1.382 ± 0.029 | 1.358 ± 0.029 | 1.383 ± 0.029 | 1.396 ± 0.03 | 1.421 ± 0.03 | 1.47 ± 0.031 | 1.518 ± 0.032 | 1.581 ± 0.034 | 1.697 ± 0.036

CC12CC3CC(C)(C1)CC(C)(C3)C2 + OCC1CCCCC1
Details | viscosity [mPa·s]
303.15 K, 100 kPa, x2 = 0.801 | 10.65 ± 0.17

CCCCCO + OCCO
293.15 K, 101.33 kPa
Details | viscosity [mPa·s]
x2 = 0.0857 | 4.274 ± 0.037
x2 = 0.1963 | 4.916 ± 0.042
x2 = 0.2991 | 5.66 ± 0.045
x2 = 0.3697 | 6.324 ± 0.049
x2 = 0.4694 | 7.484 ± 0.056
x2 = 0.5395 | 8.676 ± 0.062
x2 = 0.5964 | 9.655 ± 0.068
x2 = 0.713 | 12.32 ± 0.082
x2 = 0.7884 | 14.03 ± 0.091
x2 = 0.8506 | 15.9 ± 0.1
x2 = 0.9407 | 18.94 ± 0.12

O=[N+]([O-])c1ccccc1 + OCCOCCO
viscosity [mPa·s], 101 kPa
Details | 298.15 K | 308.15 K
x2 = 0.0441 | 1.987 ± 0.093 | 1.691 ± 0.081
x2 = 0.1493 | 2.565 ± 0.12 | 2.115 ± 0.099
x2 = 0.2505 | 3.312 ± 0.15 | 2.642 ± 0.12
x2 = 0.3502 | 4.303 ± 0.19 | 3.31 ± 0.15
x2 = 0.4438 | 5.55 ± 0.24 | 4.117 ± 0.18
x2 = 0.4934 | 6.373 ± 0.26 | 4.632 ± 0.2
x2 = 0.5487 | 7.457 ± 0.3 | 5.293 ± 0.23
x2 = 0.6506 | 10.04 ± 0.38 | 6.804 ± 0.28
x2 = 0.751 | 13.58 ± 0.49 | 8.774 ± 0.34
x2 = 0.8498 | 18.47 ± 0.64 | 11.34 ± 0.42
x2 = 0.9429 | 24.89 ± 0.84 | 14.54 ± 0.52

Reference: the CheMixHub viscosity set
